In patent publication US9073855B2, “BCL-2 selective apoptosis-inducing agents for the treatment of cancer and immune diseases” (AbbVie Inc., priority 2008, dated 2015):

Columns and labels:
GST-Bcl-XL = GST-Bcl-XL (Homo sapiens, UniProt Q07817); assay: TR-FRET binding assay, GST-Bcl-XL with F-Bak peptide probe; details: TR-FRET Binding Affinity, GST-Bcl-XL, F-Bak peptide probe
Summary of the method: (§1)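 Displacement of a fluorescein-labelled Bak peptide from the GST-tagged protein was followed by time-resolved FRET with a terbium anti-GST donor after 3 h incubation at room temperature. Inhibition constants were calculated with Wang's equation.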

FL5.12/Bcl-2 cells = assay: FL5.12/Bcl-2 cell viability assay under IL-3 withdrawal (CellTitre Glo); format: cell-based, murine; details: Mus musculus, IL-3 withdrawn 48 hrs, then 24 hrs with compound
Summary of the method: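 IL-3 withdrawal 48 hrs (no WEHI-3B medium), then compound 24 hrs, various concentrations; 37° C, 5% CO2; readout CellTitre Glo. Murine prolymphocytic FL5.12 stably overexpressing Bcl-2.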

GST-Bcl-2 = GST-Bcl-2 (Homo sapiens, UniProt P10415); assay: TR-FRET binding assay, GST-Bcl-2 with F-Bak peptide probe; details: TR-FRET Binding Affinity, GST-Bcl-2, F-Bak peptide probe
GST-Bcl-2, sequence (P10415 whole entry): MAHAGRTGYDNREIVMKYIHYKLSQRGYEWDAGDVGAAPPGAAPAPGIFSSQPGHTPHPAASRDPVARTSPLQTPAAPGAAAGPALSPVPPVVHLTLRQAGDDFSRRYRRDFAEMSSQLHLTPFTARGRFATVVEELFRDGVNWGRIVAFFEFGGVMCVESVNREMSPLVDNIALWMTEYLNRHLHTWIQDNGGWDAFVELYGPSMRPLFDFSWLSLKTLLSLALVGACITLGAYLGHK
Summary of the method: as §1

GST-Bcl-XL, sequence (Q07817 whole entry): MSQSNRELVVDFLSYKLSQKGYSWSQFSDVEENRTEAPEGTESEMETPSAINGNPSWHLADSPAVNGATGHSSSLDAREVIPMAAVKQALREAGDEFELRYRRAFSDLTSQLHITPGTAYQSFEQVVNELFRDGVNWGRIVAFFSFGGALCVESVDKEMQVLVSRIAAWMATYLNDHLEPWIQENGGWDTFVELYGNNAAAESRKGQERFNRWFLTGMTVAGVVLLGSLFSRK

Structure (SMILES)	Ki (GST-Bcl-XL) [nM]	EC50 (FL5.12/Bcl-2 cells) [nM]	Ki (GST-Bcl-2) [nM]
CC1(C)CCC(CN2CCN(c3ccc(C(=O)NS(=O)(=O)c4ccc(NCC5CCOCC5)c([N+](=O)[O-])c4)c(Oc4ccc5[nH]ccc5c4)c3)CC2)=C(c2ccc(Cl)cc2)C1 [Example 177, 4-(4-{[2-(4-chlorophenyl)-4,4-dimethylcyclohex-1-en-1-yl]methyl}piperazin-1-yl)-2-(1H-indol-5-yloxy)-N-({3-nitro-4-[(tetrahydro-2H-pyran-4-ylmethyl)amino]phenyl}sulfonyl)benzamide]	132	19.7	0.165
CC1(C)CCC(CN2CCN(c3ccc(C(=O)NS(=O)(=O)c4cnc(OCC5CCOCC5)c(C#N)c4)c(Oc4ccc5[nH]ccc5c4)c3)CC2)=C(c2ccc(Cl)cc2)C1 [Example 333, 4-(4-{[2-(4-chlorophenyl)-4,4-dimethylcyclohex-1-en-1-yl]methyl}piperazin-1-yl)-N-{[5-cyano-6-(tetrahydro-2H-pyran-4-ylmethoxy)pyridin-3-yl]sulfonyl}-2-(1H-indol-5-yloxy)benzamide]	> 660	109	0.089
CC1(C)CCC(CN2CCN(c3ccc(C(=O)NS(=O)(=O)c4ccc(N[C@@H]5CCN(Cc6ccccc6)C[C@@H]5O)c([N+](=O)[O-])c4)c(Oc4ccc5[nH]ccc5c4)c3)CC2)=C(c2ccc(Cl)cc2)C1 [Example 187, N-[(4-{[(3S,4R)-1-benzyl-3-hydroxypiperidin-4-yl]amino}-3-nitrophenyl)sulfonyl]-4-(4-{[2-(4-chlorophenyl)-4,4-dimethylcyclohex-1-en-1-yl]methyl}piperazin-1-yl)-2-(1H-indol-5-yloxy)benzamide]	> 660	341	0.329
CC1(C)CCC(CN2CCN(c3ccc(C(=O)NS(=O)(=O)c4ccc(NN5CCOCC5)c([N+](=O)[O-])c4)c(Oc4ccc5[nH]ccc5c4)c3)CC2)=C(c2ccc(Cl)cc2)C1 [Example 260, 4-(4-{[2-(4-chlorophenyl)-4,4-dimethylcyclohex-1-en-1-yl]methyl}piperazin-1-yl)-2-(1H-indol-5-yloxy)-N-{[4-(morpholin-4-ylamino)-3-nitrophenyl]sulfonyl}benzamide]	> 660	59.4	1.09
CC1(C)CCC(CN2CCN(c3ccc(C(=O)NS(=O)(=O)c4ccc(NCC5(C)COC5)c([N+](=O)[O-])c4)c(Oc4ccc5[nH]ccc5c4)c3)CC2)=C(c2ccc(Cl)cc2)C1 [Example 264, 4-(4-{[2-(4-chlorophenyl)-4,4-dimethylcyclohex-1-en-1-yl]methyl}piperazin-1-yl)-2-(1H-indol-5-yloxy)-N-[(4-{[(3-methyloxetan-3-yl)methyl]amino}-3-nitrophenyl)sulfonyl]benzamide]	> 660	25.7	0.235
CC(c1ccccc1-c1ccc(Cl)cc1)N1CCN(c2ccc(C(=O)NS(=O)(=O)c3ccc(NCC4CCOCC4)c([N+](=O)[O-])c3)c(Oc3ccc4[nH]ccc4c3)c2)CC1 (stereo not drawn) [Example 252, 4-{4-[1-(4′-chloro-1,1′-biphenyl-2-yl)ethyl]piperazin-1-yl}-2-(1H-indol-5-yloxy)-N-({3-nitro-4-[(tetrahydro-2H-pyran-4-ylmethyl)amino]phenyl}sulfonyl)benzamide]	> 660	6.62	0.077
CC1(C)CCC(CN2CCN(c3ccc(C(=O)NS(=O)(=O)c4ccc(NC5CCN(C6Cc7ccccc7C6)CC5)c([N+](=O)[O-])c4)c(Oc4cccc5[nH]ccc45)c3)CC2)=C(c2ccc(Cl)cc2)C1 [Example 227, 4-(4-{[2-(4-chlorophenyl)-4,4-dimethylcyclohex-1-en-1-yl]methyl}piperazin-1-yl)-N-[(4-{[1-(2,3-dihydro-1H-inden-2-yl)piperidin-4-yl]amino}-3-nitrophenyl)sulfonyl]-2-(1H-indol-4-yloxy)benzamide]	> 660	> 500	6.83
COCCN1CCC(Nc2ccc(S(=O)(=O)NC(=O)c3ccc(N4CCN(CC5=C(c6ccc(Cl)cc6)CC(C)(C)CC5)CC4)cc3Oc3ccc4[nH]ccc4c3)cc2[N+](=O)[O-])CC1 [Example 189, 4-(4-{[2-(4-chlorophenyl)-4,4-dimethylcyclohex-1-en-1-yl]methyl}piperazin-1-yl)-2-(1H-indol-5-yloxy)-N-[(4-{[1-(2-methoxyethyl)piperidin-4-yl]amino}-3-nitrophenyl)sulfonyl]benzamide]	51.7	14.9	0.144
CC1(C)CCC(CN2CCN(c3ccc(C(=O)NS(=O)(=O)c4ccc(NC5CCN(CC6CC6)CC5)c([N+](=O)[O-])c4)c(Oc4ccc5[nH]ccc5c4)c3)CC2)=C(c2ccc(Cl)cc2)C1 [Example 214, 4-(4-{[2-(4-chlorophenyl)-4,4-dimethylcyclohex-1-en-1-yl]methyl}piperazin-1-yl)-N-[(4-{[1-(cyclopropylmethyl)piperidin-4-yl]amino}-3-nitrophenyl)sulfonyl]-2-(1H-indol-5-yloxy)benzamide]	64	15.7	0.082
CC1(C)CCC(CN2CCN(c3ccc(C(=O)NS(=O)(=O)c4ccc(NCC5CCS(=O)(=O)CC5)c([N+](=O)[O-])c4)c(Oc4cccc5[nH]ccc45)c3)CC2)=C(c2ccc(Cl)cc2)C1 [Example 301, 4-(4-{[2-(4-chlorophenyl)-4,4-dimethylcyclohex-1-en-1-yl]methyl}piperazin-1-yl)-N-[(4-{[(1,1-dioxidotetrahydro-2H-thiopyran-4-yl)methyl]amino}-3-nitrophenyl)sulfonyl]-2-(1H-indol-4-yloxy)benzamide]	> 660	59.5	0.291
CC1(C)CCC(CN2CCN(c3ccc(C(=O)NS(=O)(=O)c4ccc(OCC5(F)CCOCC5)c([N+](=O)[O-])c4)c(Oc4cccc5[nH]cnc45)c3)CC2)=C(c2ccc(Cl)cc2)C1 [Example 408, 2-(1H-benzimidazol-4-yloxy)-4-(4-{[2-(4-chlorophenyl)-4,4-dimethylcyclohex-1-en-1-yl]methyl}piperazin-1-yl)-N-({4-[(4-fluorotetrahydro-2H-pyran-4-yl)methoxy]-3-nitrophenyl}sulfonyl)benzamide]	28.1	2.39	0.002
CC1(C)CCC(CN2CCN(c3ccc(C(=O)NS(=O)(=O)c4ccc(NCC56CC7CC(C5)C(O)[C@H](C7)C6)c([N+](=O)[O-])c4)c(Oc4ccc5[nH]ccc5c4)c3)CC2)=C(c2ccc(Cl)cc2)C1 (stereo partly drawn) [Example 321, 4-(4-{[2-(4-chlorophenyl)-4,4-dimethylcyclohex-1-en-1-yl]methyl}piperazin-1-yl)-N-{[4-({[(3R)-4-hydroxy-1-adamantyl]methyl}amino)-3-nitrophenyl]sulfonyl}-2-(1H-indol-5-yloxy)benzamide]	> 660	29.1	0.689
CC1(C)CCC(CN2CCN(c3ccc(C(=O)NS(=O)(=O)c4cnc(OCC5(F)CCOCC5)c(C#N)c4)c(Oc4cccc5[nH]ncc45)c3)CC2)=C(c2ccc(Cl)cc2)C1 [Example 406, 4-(4-{[2-(4-chlorophenyl)-4,4-dimethylcyclohex-1-en-1-yl]methyl}piperazin-1-yl)-N-({5-cyano-6-[(4-fluorotetrahydro-2H-pyran-4-yl)methoxy]pyridin-3-yl}sulfonyl)-2-(1H-indazol-4-yloxy)benzamide]	44.6	20.5	0.035
COCCNC(=O)c1ccc(S(=O)(=O)NC(=O)c2ccc(N3CCN(CC4=C(c5ccc(Cl)cc5)CC(C)(C)CC4)CC3)cc2Oc2ccc3[nH]ccc3c2)cc1 [Example 332, 4-(4-{[2-(4-chlorophenyl)-4,4-dimethylcyclohex-1-en-1-yl]methyl}piperazin-1-yl)-2-(1H-indol-5-yloxy)-N-[(4-{[(2-methoxyethyl)amino]carbonyl}phenyl)sulfonyl]benzamide]	> 660	> 500	12.6
CN1CCC(Oc2ccc(S(=O)(=O)NC(=O)c3ccc(N4CCN(CC5=C(c6ccc(Cl)cc6)CC(C)(C)CC5)CC4)cc3Oc3ccc4[nH]ccc4c3)cc2[N+](=O)[O-])CC1 [Example 353, 4-(4-{[2-(4-chlorophenyl)-4,4-dimethylcyclohex-1-en-1-yl]methyl}piperazin-1-yl)-2-(1H-indol-5-yloxy)-N-({4-[(1-methylpiperidin-4-yl)oxy]-3-nitrophenyl}sulfonyl)benzamide]	> 660	58.3	0.292
CC1(C)CCC(CN2CCN(c3ccc(C(=O)NS(=O)(=O)c4ccc(NN5CCCCC5)c([N+](=O)[O-])c4)c(Oc4ccc5[nH]ccc5c4)c3)CC2)=C(c2ccc(Cl)cc2)C1 [Example 284, 4-(4-{[2-(4-chlorophenyl)-4,4-dimethylcyclohex-1-en-1-yl]methyl}piperazin-1-yl)-2-(1H-indol-5-yloxy)-N-{[3-nitro-4-(piperidin-1-ylamino)phenyl]sulfonyl}benzamide]	> 660	> 500	1.55
CC1(C)CCC(CN2CCN(c3ccc(C(=O)NS(=O)(=O)c4ccc(OCC5CCOCC5)c([N+](=O)[O-])c4)c(Oc4cccc5[nH]ccc45)c3)CC2)=C(c2ccc(Cl)cc2)C1 [Example 289, 4-(4-{[2-(4-chlorophenyl)-4,4-dimethylcyclohex-1-en-1-yl]methyl}piperazin-1-yl)-2-(1H-indol-4-yloxy)-N-{[3-nitro-4-(tetrahydro-2H-pyran-4-ylmethoxy)phenyl]sulfonyl}benzamide]	> 660	27.4	0.112
